From US10125138B2, “Triazolotriazinone derivatives having activity a s herbicides” (Syngenta Participations AG, priority 2015, dated 2018)

Columns and labels:
Type in all cases: in vivo
Settings in all cases: 1000 g/h, evaluated after 13 days, five point scale
Solanum nigrum (SOLNI) [1] = assay: Pre-emergence glasshouse herbicide test, Solanum nigrum
Method: (§1) Seeds of a variety of test species are sown in standard soil in pots (Lolium perenne (LOLPE), Solanum nigrum (SOLNI), Amaranthus retoflexus (AMARE), Setaria faberi (SETFA), Echinochloa crus-galli (ECHCG), Ipomoea hederacea (IPOHE)). After cultivation for one day (pre-emergence) or after 8 days cultivation (post-emergence) under controlled conditions in a glasshouse (at 24/16° C., day/night; 14 hours light; 65% humidity), the plants are sprayed with an aqueous spray solution derived from the formulation of the technical active ingredient in acetone/water (50:50) solution containing 0.5% Tween 20 (polyoxyethelyene sorbitan monolaurate, CAS RN 9005-64-5). Compounds are applied at 1000 g/h. The test plants are then grown in a glasshouse under controlled conditions in a glasshouse (at 24/16° C., day/night; 14 hours light; 65% humidity) and watered twice daily. After 13 days for pre and post-emergence, the test is evaluated for the percentage damage caused to the plant. The biological activities are shown in the following table on a five point scale (5=80-100%; 4=60-79%; 3=40-59%; 2=20-39%; 1=0-19%).

[2] = tested on: Amaranthus retoflexus (AMARE); assay: Post-emergence glasshouse herbicide test, Amaranthus retoflexus
Method: as §1, with “Compounds are applied at 1000 g/h.” left out

Lolium perenne (LOLPE) [3] = assay: Post-emergence glasshouse herbicide test, Lolium perenne
Method: as §1, with “Compounds are applied at 1000 g/h.” left out

Lolium perenne (LOLPE) [4] = assay: Pre-emergence glasshouse herbicide test, Lolium perenne
Method: as §1, with “Compounds are applied at 1000 g/h.” left out

Solanum nigrum (SOLNI) [5] = assay: Post-emergence glasshouse herbicide test, Solanum nigrum
Method: as §1

[6] = tested on: Echinochloa crus-galli (ECHCG); assay: Pre-emergence glasshouse herbicide test, Echinochloa crus-galli
Method: as §1, with “Compounds are applied at 1000 g/h.” left out

[7] = tested on: Ipomoea hederacea (IPOHE); assay: Post-emergence glasshouse herbicide test, Ipomoea hederacea
Method: as §1, with “Compounds are applied at 1000 g/h.” left out

[8] = tested on: Ipomoea hederacea (IPOHE); assay: Pre-emergence glasshouse herbicide test, Ipomoea hederacea
Method: as §1, with “Compounds are applied at 1000 g/h.” left out

[9] = tested on: Amaranthus retoflexus (AMARE); assay: Pre-emergence glasshouse herbicide test, Amaranthus retoflexus
Method: as §1, with “Compounds are applied at 1000 g/h.” left out

[10] = tested on: Echinochloa crus-galli (ECHCG); assay: Post-emergence glasshouse herbicide test, Echinochloa crus-galli
Method: as §1, with “Compounds are applied at 1000 g/h.” left out

Setaria faberi (SETFA) [11] = assay: Pre-emergence glasshouse herbicide test, Setaria faberi
Method: as §1, with “Compounds are applied at 1000 g/h.” left out

Setaria faberi (SETFA) [12] = assay: Post-emergence glasshouse herbicide test, Setaria faberi
Method: as §1, with “Compounds are applied at 1000 g/h.” left out

SMILES | percentage damage caused to the plant, PRE Application SOLNI (Solanum nigrum (SOLNI) [1]) | percentage damage caused to the plant, POST Application AMARE [2] | percentage damage caused to the plant, POST Application LOLPE (Lolium perenne (LOLPE) [3]) | percentage damage caused to the plant, PRE Application LOLPE (Lolium perenne (LOLPE) [4]) | percentage damage caused to the plant, POST Application SOLNI (Solanum nigrum (SOLNI) [5]) | percentage damage caused to the plant, PRE Application ECHCG [6] | percentage damage caused to the plant, POST Application IPOHE [7] | percentage damage caused to the plant, PRE Application IPOHE [8] | percentage damage caused to the plant, PRE Application AMARE [9] | percentage damage caused to the plant, POST Application ECHCG [10] | percentage damage caused to the plant, PRE Application SETFA (Setaria faberi (SETFA) [11]) | percentage damage caused to the plant, POST Application SETFA (Setaria faberi (SETFA) [12])
CCn1nnnc1NC(=O)c1nn2cnn(-c3ccccc3)c2nc1=O [Compound 1.013] | 5 (5=80-100%) | 5 (5=80-100%) | 5 (5=80-100%) | 5 (5=80-100%) | 5 (5=80-100%) | 5 (5=80-100%) | 5 (5=80-100%) | 5 (5=80-100%) | 5 (5=80-100%) | 5 (5=80-100%) | 5 (5=80-100%) | 5 (5=80-100%)
CCCCn1nnnc1NC(=O)c1nn2cnn(-c3ccc(OC)cc3)c2nc1=O [Compound 1.040] | 5 (5=80-100%) | 4 (4=60-79%) | 5 (5=80-100%) | 5 (5=80-100%) | 5 (5=80-100%) | 5 (5=80-100%) | 5 (5=80-100%) | 5 (5=80-100%) | 3 (3=40-59%) | 3 (3=40-59%) | 5 (5=80-100%) | 4 (4=60-79%)
CCn1nnnc1NC(=O)c1nn2cnn(-c3ccc(C)cc3C)c2nc1=O [Compound 1.045] | 5 (5=80-100%) | 5 (5=80-100%) | 5 (5=80-100%) | 5 (5=80-100%) | 5 (5=80-100%) | 5 (5=80-100%) | 5 (5=80-100%) | 5 (5=80-100%) | 5 (5=80-100%) | 5 (5=80-100%) | 4 (4=60-79%) | 5 (5=80-100%)
CCn1nnnc1NC(=O)c1nn2cnn(-c3ccc(F)cc3)c2nc1=O [Compound 1.037] | 5 (5=80-100%) | 5 (5=80-100%) | 4 (4=60-79%) | 4 (4=60-79%) | 5 (5=80-100%) | 5 (5=80-100%) | 4 (4=60-79%) | 5 (5=80-100%) | 5 (5=80-100%) | 5 (5=80-100%) | 5 (5=80-100%) | 5 (5=80-100%)
CCCCn1nnnc1NC(=O)c1nn2cnn(-c3ccc(F)cc3)c2nc1=O [Compound 1.039] | 5 (5=80-100%) | 5 (5=80-100%) | 5 (5=80-100%) | 5 (5=80-100%) | 5 (5=80-100%) | 5 (5=80-100%) | 5 (5=80-100%) | 4 (4=60-79%) | 5 (5=80-100%) | 5 (5=80-100%) | 5 (5=80-100%) | 5 (5=80-100%)
O=C1CCCC(=O)C1C(=O)c1nn2cnn(-c3ccc(F)cc3)c2nc1=O [Compound 4.002] | 5 (5=80-100%) | 5 (5=80-100%) | 5 (5=80-100%) | 4 (4=60-79%) | 5 (5=80-100%) | 5 (5=80-100%) | 5 (5=80-100%) | 5 (5=80-100%) | 5 (5=80-100%) | 5 (5=80-100%) | 5 (5=80-100%) | 5 (5=80-100%)
Cc1ccccc1-n1ncn2nc(C(=O)Nc3nnnn3C)c(=O)nc12 [Compound 1.030] | 5 (5=80-100%) | 5 (5=80-100%) | 4 (4=60-79%) | 4 (4=60-79%) | 5 (5=80-100%) | 5 (5=80-100%) | 5 (5=80-100%) | 5 (5=80-100%) | 5 (5=80-100%) | 5 (5=80-100%) | 5 (5=80-100%) | 5 (5=80-100%)
Cn1nnnc1NC(=O)c1nn2cnn(-c3cccc(Cl)c3)c2nc1=O [Compound 1.018] | 5 (5=80-100%) | 5 (5=80-100%) | 4 (4=60-79%) | 3 (3=40-59%) | 5 (5=80-100%) | 5 (5=80-100%) | 5 (5=80-100%) | 5 (5=80-100%) | 4 (4=60-79%) | 5 (5=80-100%) | 5 (5=80-100%) | 5 (5=80-100%)
CCCn1ncn2nc(C(=O)Nc3nnnn3C)c(=O)nc12 [Compound 1.007] | 5 (5=80-100%) | 5 (5=80-100%) | 3 (3=40-59%) | 4 (4=60-79%) | 5 (5=80-100%) | 5 (5=80-100%) | 5 (5=80-100%) | 4 (4=60-79%) | 5 (5=80-100%) | 5 (5=80-100%) | 5 (5=80-100%) | 5 (5=80-100%)
